≈ marks a conversion by molar mass, not a printed value. Where a SMILES comes first, the peptide text is derived from it. Bridges are numbered along the chain shown (N, C = ends). The star is where a group is joined. Lauroyl = CCCCCCCCCCCC(=O)*; Decanoyl = CCCCCCCCCC(=O)*
What was measured:
[1] = test system: B. subtilis (Bs, ATCC 23857); test: microbe, parasite or virus in culture; assay type: cell-based, Bacillus subtilis; settings: ATCC 23857, 24 h
In short: (§1)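 Cultures grown in Mueller–Hinton broth were adjusted by OD600 to 2.5–3 × 10^4 CFU/mL and mixed with two-fold peptide dilutions from 256 to 1 µg/mL. Plates were incubated at 35 °C with OD595 monitored every hour for 24 h.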

[2] = test system: C. glutamicum (Cg, ATCC 13032); test: microbe, parasite or virus in culture; assay type: cell-based, Corynebacterium glutamicum; settings: ATCC 13032, 24 h
In short: as §1

[3] = test system: S. aureus (Sa, ATCC 9144); test: microbe, parasite or virus in culture; assay type: cell-based, Staphylococcus aureus; settings: ATCC 9144, 24 h
In short: as §1

[4] = test system: S. epidermidis RP62A (Se, ATCC 35984); test: microbe, parasite or virus in culture; assay type: cell-based, Staphylococcus epidermidis; settings: ATCC 35984, 24 h
In short: as §1

E. coli (Ec, ATCC 25922) = test: microbe, parasite or virus in culture; assay type: cell-based, Escherichia coli; settings: ATCC 25922, 24 h
In short: as §1

[5] = test system: P. aeruginosa (Pa, ATCC 27853); test: microbe, parasite or virus in culture; assay type: cell-based, Pseudomonas aeruginosa; settings: ATCC 27853, 24 h
In short: as §1

all bacterial strains = test: Antibacterial MIC assay, all bacterial strains together (range or geometric mean); assay type: cell-based; settings: for GM (geometric mean of the MIC values against all bacterial strains): Table 1, six bacterial strains; for GM of MIC Tot. bact.: Table S3, all bacterial test strains, MIC >256 set to 256
In short: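 Broth microdilution in Mueller–Hinton broth against B. subtilis, C. glutamicum, S. aureus, S. epidermidis RP62A, E. coli and P. aeruginosa; inoculum 2.5–3 × 10^4 CFU/mL, 35 °C, OD595 read hourly for 24 h. MIC: lowest peptide concentration giving OD below 10% of growth control; geometric mean across strains, triplicate.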

A. pullulans (Ap) = test: microbe, parasite or virus in culture; assay type: cell-based, Aurobasidium pollulans; settings: 48 h
In short: (§2)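 Overnight cultures in potato dextrose broth with 2% glucose at 25–30 °C were diluted to approx. 4 × 10^5 spores/mL and mixed 1:1 with two-fold peptide dilutions plated at 256 to 1 µg/mL. After 48 h at room temperature, OD600 was read. MIC was the lowest concentration giving OD below 10% of the growth control, in triplicate.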

[6] = test system: C. albicans (Ca, ATCC 10231); test: microbe, parasite or virus in culture; assay type: cell-based, Candida albicans; settings: ATCC 10231, 48 h
In short: as §2

Rhodotorula sp. (Rh) = test: microbe, parasite or virus in culture; assay type: cell-based; settings: 48 h
In short: as §2

[7] = test system: human red blood cells (RBC); test: Haemolytic activity assay; assay type: cell-based; settings: for Selectivity index (SI) G- / Selectivity index (SI) G+ / Selectivity index (SI) Fungi: Table S3, highest tested concentration used where EC50 above it; for Selectivity index (SI) G-: EC50/GM of Gram-negative strains; for Selectivity index (SI) G+: EC50/GM of Gram-positive strains; for Selectivity index (SI) Fungi: EC50/GM of fungi; for SI (selectivity index = EC50/GM): haemolytic EC50 over GM of MIC against all bacterial strains, Table 1; for RBC Tox. (EC50), haemolytic activity: human RBC, 1 h, 37 °C, concentration giving 50% haemolysis
In short: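 Washed human erythrocytes (1% hematocrit final) incubated 1 h at 37 °C with agitation with lipopeptides at 500–3.9 μM in PBS (≤1% DMSO), duplicates. Haemoglobin release read at 545 nm relative to 0.1% Triton X-100; EC50 is 50% haemolysis, averaged from three experiments.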

[8] = test system: E. coli MC4100 (wild type, WT); test: microbe, parasite or virus in culture; settings: wild type
Experimental: (§3) All cyclic and linear peptides were screened for antibacterial activity against four Gram-positive strains: B. subtilis (Bs, ATCC 23857), C. glutamicum (Cg, ATCC 13032), S. aureus (Sa, ATCC 9144) and S. epidermidis RP62A (Se, ATCC 35984), and two Gram-negative strains: E. coli (Ec, ATCC 25922) and P. aeruginosa (Pa, ATCC 27853). The activity was assessed using a broth microdilution assay according to a modified CLSI-based method. Briefly, overnight bacterial cultures were grown in Mueller–Hinton (MH) broth medium (Difco Laboratories, Detroit, MI, USA) for 2 h at room temperature. The optical density (OD600) was measured, and the bacterial suspensions were adjusted to 2.5–3 × 10^4 CFU/mL in MH medium. The bacterial suspension (50 µL) was distributed in 96-well plates (Nunc, Roskilde, Denmark) preloaded with two-fold dilution series (256 to 1 µg/mL) of peptide solutions (50 µL), giving a final well volume of 100 µL. The microplates were incubated in an EnVision 2103 microplate reader (PerkinElmer, Llantrisant, UK) at 35 °C, with OD595 recorded every hour for 24 h. MIC was defined as the lowest concentration of peptides showing an optical density less than 10% of the negative (growth) control, consisting of bacterial suspension and water. Polymyxin B sulfate (Sigma-Aldrich, St. Louis, MO, USA) and chlorhexidine acetate (CHX, Fresenius Kabi, Halden, Norway), both with concentrations ranging from 12.5 to 0.09 μg/mL, served as positive (growth inhibition) controls. All peptides were tested in triplicate.
(§4) MIC values were determined for all cyclic peptides against two E. coli strains: wild type (WT) MC4100 and the hyperpermeable variant NR698, having a deficient outer membrane. The NR698 strain, containing lptD4213/imp4213 mutation, was kindly provided by M. Grabowicz (Emory University School of Medicine, Rollins Research Center, Atlanta, GA, USA). The assay was performed in the same way as previously described for the antibacterial MIC assay.

[9] = test system: E. coli NR698 (outer membrane permeable mutant, imp4213); test: microbe, parasite or virus in culture; settings: MC4100 NR698 imp4213, deficient outer membrane
Experimental: as §3, §4

[10] = test system: Gram-positive bacterial strains; settings: Table S3; MIC >256 set to 256
In short: as §1

[11] = test system: Gram-negative bacterial strains (E. coli and P. aeruginosa); test: Antibacterial MIC assay, Gram-negative strains together (range or geometric mean); assay type: cell-based; settings: Table S3; MIC >256 set to 256
In short: as §1

[12] = test system: fungi (A. pullulans, C. albicans, Rhodotorula sp.); test: Antifungal MIC assay, all fungi together (range or geometric mean); assay type: cell-based; settings: Table S3; MIC >128 set to 128
In short: as §2

Row | Structure (SMILES) | Antimicrobial Activity (MIC) Gram + Bs [1] | Antimicrobial Activity (MIC) Gram + Cg [2] | Antimicrobial Activity (MIC) Gram + Sa [3] | Antimicrobial Activity (MIC) Gram + Se [4] | Antimicrobial Activity (MIC) Gram − Ec (E. coli (Ec, ATCC 25922)) | Antimicrobial Activity (MIC) Gram − Pa [5] | GM (geometric mean of the MIC values against all bacterial strains) (all bacterial strains) | GM of MIC Tot. bact. (all bacterial strains) | Antimicrobial Activity (MIC) Fungi Ap (A. pullulans (Ap)) | Antimicrobial Activity (MIC) Fungi Ca [6] | Antimicrobial Activity (MIC) Fungi Rh (Rhodotorula sp. (Rh)) | Selectivity index (SI) G- [7] | Selectivity index (SI) G+ [7] | Selectivity index (SI) Fungi [7] | SI (selectivity index = EC50/GM) [7] | RBC Tox. (EC50), haemolytic activity [7] | MIC E. coli MC4100 (WT) [8] | MIC E. coli NR698 (mutant) [9] | GM of MIC G+ [10] | GM of MIC G- [11] | further results
1 | CCCCCCCCCC(=O)N[C@H]1CSSC[C@@H](C(=O)N[C@@H](CCCCN)C(=O)N[C@@H](CC(C)C)C(N)=O)NC(=O)[C@H](CCCCN)NC(=O)[C@H](Cc2c[nH]c3ccccc23)NC(=O)CNC(=O)[C@H](Cc2c[nH]c3ccccc23)NC(=O)[C@H](Cc2c[nH]c3ccccc23)NC(=O)[C@H](CCCCN)NC(=O)[C@H](CCCCN)NC(=O)CNC1=O [Peptide C10-cTurg-2, C10- (CGKKWWGWKC)KL-NH2] (Decanoyl-CGKKWWGWKCKL-NH2; disulfide 1-10) | 2 µg/mL | 4 µg/mL | 4 µg/mL | 4 µg/mL | 8 µg/mL | 8 µg/mL | 5 µg/mL | 5 µg/mL | 32 µg/mL | 64 µg/mL | 16 µg/mL | 13 | 32 | 3 | 24 | 106 µg/mL | 8 µg/mL (≈ 4.78 µM) | 4 µg/mL (≈ 2.39 µM) | 3 µg/mL | 8 µg/mL | GM of MIC Fungi [12]: 32 µg/mL
2 | CCCCCCCCCCCC(=O)N[C@H]1CSSC[C@@H](C(=O)N[C@@H](CCCCN)C(=O)N[C@@H](CC(C)C)C(N)=O)NC(=O)[C@H](CCCCN)NC(=O)[C@H](Cc2c[nH]c3ccccc23)NC(=O)CNC(=O)[C@H](Cc2c[nH]c3ccccc23)NC(=O)[C@H](Cc2c[nH]c3ccccc23)NC(=O)[C@H](CCCCN)NC(=O)[C@H](CCCCN)NC(=O)CNC1=O [Peptide C12-cTurg-2, C12- (CGKKWWGWKC)KL-NH2] (Lauroyl-CGKKWWGWKCKL-NH2; disulfide 1-10) | 4 µg/mL | 8 µg/mL | 8 µg/mL | 8 µg/mL | 16 µg/mL | 16 µg/mL | 9 µg/mL | 9 µg/mL | 32 µg/mL | 64 µg/mL | 32 µg/mL | 2 | 5 | 1 | 4 | 32 µg/mL | 8 µg/mL (≈ 4.7 µM) | 8 µg/mL (≈ 4.7 µM) | 7 µg/mL | 16 µg/mL | GM of MIC Fungi [12]: 40 µg/mL
